Measured values reported in ChEMBL document CHEMBL5370537, “Aporphines: A privileged scaffold in CNS drug discovery” (Eur J Med Chem, 2023).

How the values were obtained:
[1] = target: D(1A) dopamine receptor (Homo sapiens, UniProt P21728); assay: Antagonist activity at D1R (unknown origin) transfected in HEK293 cells by FLIPR assay
[2] = target: Acetylcholinesterase (Electrophorus electricus, UniProt O42275); assay: Inhibition of Electrophorus electricus AChE using ATCI as substrate pre-incubated for 10 mins followed by substrate addition measured after 5 mins by microplate reader analysis
Chain of Acetylcholinesterase (O42275 whole entry): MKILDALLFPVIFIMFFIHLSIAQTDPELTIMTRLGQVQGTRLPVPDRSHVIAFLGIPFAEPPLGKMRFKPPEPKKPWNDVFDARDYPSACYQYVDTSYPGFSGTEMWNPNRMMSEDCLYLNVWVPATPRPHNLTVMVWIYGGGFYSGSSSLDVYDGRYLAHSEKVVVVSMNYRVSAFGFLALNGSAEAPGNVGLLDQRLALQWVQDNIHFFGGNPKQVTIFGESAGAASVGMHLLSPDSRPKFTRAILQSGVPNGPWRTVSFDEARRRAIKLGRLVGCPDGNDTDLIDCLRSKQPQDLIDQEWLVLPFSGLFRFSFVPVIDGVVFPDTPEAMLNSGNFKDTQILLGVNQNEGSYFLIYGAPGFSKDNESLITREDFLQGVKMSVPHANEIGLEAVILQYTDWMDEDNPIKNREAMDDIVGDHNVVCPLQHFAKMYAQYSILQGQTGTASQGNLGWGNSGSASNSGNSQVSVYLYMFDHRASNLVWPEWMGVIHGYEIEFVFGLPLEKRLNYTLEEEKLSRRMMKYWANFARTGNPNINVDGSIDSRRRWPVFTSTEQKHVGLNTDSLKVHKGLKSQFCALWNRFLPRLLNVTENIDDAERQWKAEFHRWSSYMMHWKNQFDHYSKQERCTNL

[3] = target: Cholinesterase (Equus caballus, UniProt P81908); assay: Inhibition of equine serum BuChE using BTCI as substrate pre-incubated for 10 mins followed by substrate addition measured after 5 mins by microplate reader analysis
Chain of Cholinesterase (P81908 whole entry): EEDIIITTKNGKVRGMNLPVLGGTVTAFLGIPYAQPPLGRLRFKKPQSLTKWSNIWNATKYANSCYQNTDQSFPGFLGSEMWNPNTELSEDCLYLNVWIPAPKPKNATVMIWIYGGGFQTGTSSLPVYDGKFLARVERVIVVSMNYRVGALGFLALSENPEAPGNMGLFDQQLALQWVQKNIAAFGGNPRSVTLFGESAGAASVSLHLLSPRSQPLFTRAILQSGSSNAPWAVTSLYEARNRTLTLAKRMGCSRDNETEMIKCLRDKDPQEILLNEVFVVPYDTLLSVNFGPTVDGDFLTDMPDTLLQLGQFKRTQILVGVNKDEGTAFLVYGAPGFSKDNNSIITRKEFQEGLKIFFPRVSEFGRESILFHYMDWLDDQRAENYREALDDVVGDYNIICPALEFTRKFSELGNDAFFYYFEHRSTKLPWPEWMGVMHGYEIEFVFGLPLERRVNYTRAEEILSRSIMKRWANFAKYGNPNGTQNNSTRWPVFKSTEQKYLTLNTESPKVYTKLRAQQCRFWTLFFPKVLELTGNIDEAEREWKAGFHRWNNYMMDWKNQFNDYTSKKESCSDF

[4] = target: T1, 5-hydroxytryptamine receptor 2C (Homo sapiens, UniProt P28335); assay: Partial agonist activity at human 5-HT2C stably transfected in HEK293T cells measured after 18 to 24 hrs by FLIPR assay; format: functional, cell-based
T1 sequence (P28335 whole entry): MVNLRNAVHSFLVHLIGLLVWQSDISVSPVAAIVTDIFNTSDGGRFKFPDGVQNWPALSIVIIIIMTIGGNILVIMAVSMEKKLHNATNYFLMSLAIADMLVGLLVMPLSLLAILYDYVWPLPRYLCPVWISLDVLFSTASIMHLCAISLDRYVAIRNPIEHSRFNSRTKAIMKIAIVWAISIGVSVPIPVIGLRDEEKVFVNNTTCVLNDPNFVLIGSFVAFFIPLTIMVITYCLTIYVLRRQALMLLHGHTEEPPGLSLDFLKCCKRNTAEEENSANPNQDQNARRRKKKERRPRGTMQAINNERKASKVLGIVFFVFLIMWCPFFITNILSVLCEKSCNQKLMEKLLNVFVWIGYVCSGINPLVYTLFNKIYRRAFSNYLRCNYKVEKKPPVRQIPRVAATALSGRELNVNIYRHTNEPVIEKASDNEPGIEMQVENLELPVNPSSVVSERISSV

[5] = system: BV-2; assay: Inhibition of NO production in LPS-induced mouse BV-2 cells incubated for 24 hrs by Griess reagent based microplate reader analysis; format: functional, cell-based; details: BV-2, 24 h
[6] = target: D(2) dopamine receptor (Homo sapiens, UniProt P14416); assay: Antagonist activity at D2R (unknown origin); format: functional
Chain of D(2) dopamine receptor (P14416 whole entry): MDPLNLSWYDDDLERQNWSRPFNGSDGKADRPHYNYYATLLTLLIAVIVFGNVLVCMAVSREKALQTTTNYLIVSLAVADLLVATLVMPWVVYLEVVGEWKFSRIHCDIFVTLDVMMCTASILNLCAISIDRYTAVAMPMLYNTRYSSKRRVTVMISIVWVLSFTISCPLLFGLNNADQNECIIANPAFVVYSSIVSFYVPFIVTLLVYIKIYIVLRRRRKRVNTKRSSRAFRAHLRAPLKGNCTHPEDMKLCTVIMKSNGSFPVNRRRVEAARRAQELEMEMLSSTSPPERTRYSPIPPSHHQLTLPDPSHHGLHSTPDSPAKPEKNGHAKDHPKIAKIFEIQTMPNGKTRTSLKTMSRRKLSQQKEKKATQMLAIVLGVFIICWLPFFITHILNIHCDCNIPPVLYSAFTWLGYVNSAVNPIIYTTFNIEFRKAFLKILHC

[7] = target: 5-hydroxytryptamine receptor 7 (Rattus norvegicus, UniProt P32305); assay: Displacement of [3H]5-HT from rat 5-HT7 assessed as inhibition constant
Chain of 5-hydroxytryptamine receptor 7 (P32305 whole entry): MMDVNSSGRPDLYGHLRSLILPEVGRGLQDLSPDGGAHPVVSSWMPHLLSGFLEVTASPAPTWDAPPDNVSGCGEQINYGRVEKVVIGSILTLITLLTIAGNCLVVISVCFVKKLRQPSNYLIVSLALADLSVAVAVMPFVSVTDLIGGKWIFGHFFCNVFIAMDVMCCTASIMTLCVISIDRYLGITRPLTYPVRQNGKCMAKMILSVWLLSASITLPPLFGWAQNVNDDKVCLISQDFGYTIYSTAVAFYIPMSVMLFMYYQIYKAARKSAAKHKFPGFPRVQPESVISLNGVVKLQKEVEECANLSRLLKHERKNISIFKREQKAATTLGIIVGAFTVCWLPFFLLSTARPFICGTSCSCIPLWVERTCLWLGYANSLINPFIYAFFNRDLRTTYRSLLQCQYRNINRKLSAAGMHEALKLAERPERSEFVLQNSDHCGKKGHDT

[8] = target: T1, 5-hydroxytryptamine receptor 2C; assay: Agonist activity at 5-HT2C (unknown origin); format: functional
[9] = target: T2, 5-hydroxytryptamine receptor 2C (Homo sapiens) (UniProt P28335); assay: Agonist activity at 5-HT2C (unknown origin) relative to control; format: functional; details: filed as agonist
T2 sequence (whole entry): T1 sequence (P28335 whole entry)

[10] = system: BV-2; assay: Potency index, ratio of minocycline IC50 to test compound IC50 for inhibition of NO production in LPS-induced mouse BV-2 cells incubated for 24 hrs by Griess reagent based microplate reader analysis; format: functional

Chain of D(1A) dopamine receptor (P21728 whole entry): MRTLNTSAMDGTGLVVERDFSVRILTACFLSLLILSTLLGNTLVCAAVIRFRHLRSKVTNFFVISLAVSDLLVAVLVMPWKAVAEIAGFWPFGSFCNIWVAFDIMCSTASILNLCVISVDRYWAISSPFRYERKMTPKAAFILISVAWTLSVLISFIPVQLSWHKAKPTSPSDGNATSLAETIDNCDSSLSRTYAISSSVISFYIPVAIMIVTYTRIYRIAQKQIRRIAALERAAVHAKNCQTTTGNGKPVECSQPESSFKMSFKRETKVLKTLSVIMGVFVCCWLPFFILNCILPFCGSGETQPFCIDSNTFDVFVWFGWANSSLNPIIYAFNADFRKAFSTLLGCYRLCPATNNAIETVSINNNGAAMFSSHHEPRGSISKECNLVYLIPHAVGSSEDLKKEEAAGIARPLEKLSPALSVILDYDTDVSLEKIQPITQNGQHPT

IC50 [5] [µM] | Compound | IC50 [2] [µM] | IC50 [3] [µM] | also measured
– | COc1c(O)cc2c3c1-c1ccccc1C[C@H]3NCC2 [(-)-ASIMILOBINE] | 141 | 10.1 | IC50 [1]: 7.2 µM; EC50 [4]: 0.653 µM
– | COc1c(O)cc2c3c1-c1ccccc1CC3NCC2 (centres undefined) | – | – | IC50 [1]: 7.2 µM
39.2 | COc1c(O)ccc2c1cc1c3c(cc4c(c32)OCO4)CCN1C | – | – | –
– | COc1ccc2c(c1OC)[C@@H](O)[C@@H]1c3c(cc4c(c3-2)OCO4)CCN1C | 4.3 | 22.5 | –
31.6 | COc1ccc2c(c1)cc1c3c(cc4c(c32)OCO4)CCN1C | – | – | –
30.2 | COc1cccc2c1cc1c3c(cc4c(c32)OCO4)CCN1C | – | – | –
– | COc1ccc(OC)c2c1C[C@@H]1c3c(cc4c(c3-2)OCO4)CCN1C | – | – | IC50 [6]: 18.3 µM
– | COc1ccc2c(c1)C[C@@H]1c3c(cc4c(c3-2)OCO4)CCN1C | 11.9 | 16.6 | –
– | COc1c2c3c(c4c1OCO4)-c1ccccc1C[C@H]3N(C)CC2 | 39.8 | 104 | –
– | CN1CCc2ccc3c4c2[C@H]1Cc1cccc(c1-4)C3 | – | – | Ki [7]: 0.0043 µM
– | Oc1cc2c3c(c1Cl)-c1ccccc1C[C@@H]3NCC2 | – | – | EC50 [8]: 0.0079 µM; Emax [9]: 89.8%
15.5 | CN(C)c1ccc(O)c2c1C[C@H]1C[C@H]3[C@H](N(C)C)C(O)=C(C(N)=O)C(=O)[C@@]3(O)C(O)=C1C2=O [MINOCYCLINE] | – | – | –
– | CN1CCc2cc3c(c4c2[C@H]1[C@H](O)c1ccccc1-4)OCO3 | 17.6 | 7.42 | –
– | COc1cccc2c1[C@@H](O)[C@@H]1c3c(cc4c(c3-2)OCO4)CCN1C | 6.12 | 5.87 | –
– | Oc1cc2c3c(c1Cl)-c1ccccc1C[C@H]3NCC2 | – | – | EC50 [8]: 0.304 µM; Emax [9]: 41.6%
– | COc1cc2c3c(c1OC)-c1cc(O)ccc1C[C@H]3NCC2 | – | – | IC50 [6]: 5.2 µM

Compound | IC50 [5] [µM] | IC50 [2] [µM] | IC50 [3] [µM] | also measured
CN1CCc2cc3c(c4c2c1cc1ccccc14)OCO3 [DEHYDROROEMERINE] | 1.3 | 1.21 | 3.34 | –
COc1cccc2c1C[C@@H]1c3c(cc4c(c3-2)OCO4)CCN1C [STEPHANINE] | 20.3 | 11.3 | 2.8 | IC50 [6]: 0.85 µM; Ratio IC50 [10]: ~4
